Source: patent publication US8367712B2, “Substituted amide beta secretase inhibitors” (Merck, Sharp & Dohme, Corp., priority 2004, dated 2013)

Target: T1, sproBACE1 (soluble form of human BACE1) (Homo sapiens, UniProt P56817)
T1 construct: sBACE1, corresponding to amino acids 1-454; made in house; host or cells: Sf9 insect cells (baculovirus), secreted into the medium
Assay: Peptide Hydrolysis Assay (HTRF, EuK-biotin labeled APPsw substrate)
Assay type: biochemical
Settings: 7 nM sproBACE1, 25 nM EuK-biotin APPsw substrate, pH 5.0, 3 hr at 30° C.
Excerpt: A predicted soluble form of human BACE1 (sBACE1, corresponding to amino acids 1-454) was generated from the full length BACE1 cDNA (full length human BACE1 cDNA in pcDNA4/mycHisA construct; University of Toronto) by PCR using the advantage-GC cDNA PCR kit (Clontech, Palo Alto, Calif.). A HindIII/PmeI fragment from pcDNA4-sBACE1myc/His was blunt ended using Klenow and subcloned into the StuI site of pFASTBACI(A) (Invitrogen). A sBACE1mycHis recombinant bacmid was generated by transposition in DH10Bac cells(GIBCO/BRL). Subsequently, the sBACE1 mycHis bacmid construct was transfected into sf9 cells using CellFectin (Invitrogen, San Diego, Calif.) in order to generate recombinant baculovirus. […]
Proteins, were eluted from the Q-sepharose column with Buffer B (20 mM HEPES, pH 8.0, 500 mM NaCl). […] Peak protein fractions as determined by the Bradford Assay (Biorad, CA) were concentrated using a Centricon 30 concentrator (Millipore). sBACE1 purity was estimated to be ˜90% as assessed by SDS-PAGE and Commassie Blue staining. […]
IC50 determinations for inhibitors, (I), were determined by measuring the percent change of the relative fluorescence at 665 nm divided by the relative fluorescence at 620 nm, (665/620 ratio), in the presence of varying concentrations of I and a fixed concentration of enzyme and substrate. […]

T1 sequence (P56817 22-454): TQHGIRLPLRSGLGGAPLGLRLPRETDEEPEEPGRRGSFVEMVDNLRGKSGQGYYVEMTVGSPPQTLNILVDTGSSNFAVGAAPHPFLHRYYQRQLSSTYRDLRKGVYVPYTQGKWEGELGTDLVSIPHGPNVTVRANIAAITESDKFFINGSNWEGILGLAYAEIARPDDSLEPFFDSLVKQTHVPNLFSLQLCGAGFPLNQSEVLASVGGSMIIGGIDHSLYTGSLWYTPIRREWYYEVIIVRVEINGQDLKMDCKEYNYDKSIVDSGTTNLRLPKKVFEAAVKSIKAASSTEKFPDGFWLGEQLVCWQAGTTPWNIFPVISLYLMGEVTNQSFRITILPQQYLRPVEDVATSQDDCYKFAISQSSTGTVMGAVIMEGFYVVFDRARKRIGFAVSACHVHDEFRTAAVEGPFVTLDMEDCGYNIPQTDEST

CC(=O)N[C@@H](Cc1cc(F)cc(OCc2ccncc2)c1)[C@H](O)[C@@H]1NCCN(Cc2ccccc2)C1=O
IC50: 186 nM
